{
  "source": "paper PMC5306082",
  "about": "“Physiologically based kinetic modeling of the bioactivation of myristicin” (Archives of Toxicology, 2016)",
  "key": {"[1]": {"experiment": "Metabolism of myristicin by rat small intestine, lung, kidney microsomes", "type": "in vitro ADME", "details": "1000 μM myristicin, 1 mg/mL microsomal protein, NADPH, 30 min", "experimental": "(§1) First, it was determined which organs are involved in the biotransformation of myristicin in rat and human. For this purpose, liver, kidney, lung, and small intestine microsomes from male Sprague–Dawley rat and pooled gender human were used. Incubations were performed by adding myristicin to incubation mixtures containing 1 mg/mL of the microsomal protein preparations and 3 mM NADPH in 0.2 M Tris–HCl (pH 7.4). After 1 min of pre-incubation at 37 °C, myristicin (final concentration, 1000 μM) was added from a 100 times concentrated stock solution in DMSO so that the final DMSO content was 1 % (v/v). Incubations were carried out for 30 min after which the reactions were terminated by adding 25 µl (0.25 times the incubation volume) of ice-cold ACN. Samples were centrifuged for 5 min at 13,000×g, and the supernatant was stored at −20 °C until UPLC analysis. As metabolism of myristicin was observed only in incubations with liver microsomes for male rats and pooled gender human, the determination of kinetic constants for the formation of microsomal metabolites was performed only for the liver fractions. Incubations to determine kinetic constants were performed following the conditions described above using final concentrations of myristicin from 25 to 1000 μM for rat and human liver. In all incubations, the final concentration of DMSO, in which myristicin was dissolved, was kept at 1 % (v/v). […]"}, "[2]": {"details": "ref EFSA [2012]; Zhou et al. [2007b]; cited from earlier work"}, "Mouse liver CD-1": {"test_system": "Mouse liver CD-1", "details": "female, livers 24 h after treatment, ref Randerath et al. (1984), cited from earlier work"}, "male B6C3F1 mice": {"test_system": "male B6C3F1 mice", "details": "total dose 3.75 or 4.75 µmol injected over 22 days, 12 or 18 months; ref Miller et al. [1983]; cited from earlier work"}, "[3]": {"experiment": "Margin of exposure (MOE) risk assessment", "details": "BMDL10 of safrole; estimated daily intake of myristicin 0.0019 mg/kg bw per day from herbs and spices", "text": "The margin-of-exposure (MOE) concept was applied to assess the possible risks for human health resulting from the daily exposure to myristicin (JECFA [2005]; EFSA [2005]; Barlow et al. [2006]; O’Brien et al. [2006]). The MOE is a dimensionless ratio based on a reference point representing a dose causing a low but measurable cancer incidence in experimental animals (e.g., a BMDL10), which is divided by the estimated daily intake in humans (EFSA [2005]). […] The estimated daily intake of safrole from spice and spice oil in the USA amounts to 0.001 mg/kg bw per day (WHO [2009])."}, "New born mice B6C3F1": {"test_system": "New born mice B6C3F1", "details": "36.5 mg/kg bw i.p., male, injections on days 1, 8, 15, 22 after birth; ref Phillips et al. (1984); cited from earlier work"}, "[4]": {"details": "uptake from GI tract, assumed from fast and complete absorption of safrole; ref Punt et al. [2008]; cited from earlier work"}, "[5]": {"test_system": "freshly isolated rat hepatocytes in primary culture", "details": "10^−6 to 10^−3 M; ref Howes et al. [1990]; cited from earlier work"}, "DNA": {"test_system": "DNA", "details": "ref Zhou et al. [2007a]; Kobets et al. [2016]; Phillips et al. [1984]; Randerath et al. [1984]; cited from earlier work"}, "pregnant ICR mice": {"test_system": "pregnant ICR mice", "details": "single dose of 6 mg myristicin by gastric intubation; ref Randerath et al. [1993]; cited from earlier work"}, "[6]": {"test_system": "Cultured human HepG2 cells", "details": "harvested after 24 h, ref Zhou et al. (2007a), cited from earlier work"}, "[7]": {"experiment": "Metabolism of myristicin by human small intestine, lung, kidney microsomes", "type": "in vitro ADME", "details": "1000 μM myristicin, 1 mg/mL microsomal protein, NADPH, 30 min", "experimental": "as §1"}, "rat urine": {"test_system": "rat urine", "parameters": "method as in Beyer et al. [2006]", "details": "single oral dose 100 mg/kg bw myristicin, urine over 24 h; ref Beyer et al. [2006]; cited from earlier work"}, "[8]": {"experiment": "Microsomal conversion of myristicin, human liver microsomes", "type": "in vitro ADME", "experimental": "(§2) First, it was determined which organs are involved in the biotransformation of myristicin in rat and human. For this purpose, liver, kidney, lung, and small intestine microsomes from male Sprague–Dawley rat and pooled gender human were used. Incubations were performed by adding myristicin to incubation mixtures containing 1 mg/mL of the microsomal protein preparations and 3 mM NADPH in 0.2 M Tris–HCl (pH 7.4). After 1 min of pre-incubation at 37 °C, myristicin (final concentration, 1000 μM) was added from a 100 times concentrated stock solution in DMSO so that the final DMSO content was 1 % (v/v). Incubations were carried out for 30 min after which the reactions were terminated by adding 25 µl (0.25 times the incubation volume) of ice-cold ACN. Samples were centrifuged for 5 min at 13,000×g, and the supernatant was stored at −20 °C until UPLC analysis. As metabolism of myristicin was observed only in incubations with liver microsomes for male rats and pooled gender human, the determination of kinetic constants for the formation of microsomal metabolites was performed only for the liver fractions. Incubations to determine kinetic constants were performed following the conditions described above using final concentrations of myristicin from 25 to 1000 μM for rat and human liver. In all incubations, the final concentration of DMSO, in which myristicin was dissolved, was kept at 1 % (v/v). The formation of different microsomal metabolites was linear with time and microsomal protein concentration under the conditions described. Blank incubations were performed in the absence of the cofactor NADPH. All incubations were performed in triplicate.\n(§3) Secondary metabolism of the relevant 1′-hydroxy metabolite of myristicin was taken into account by determining the kinetic constants for its conversion in (a) glucuronidation, (b) sulfation, and (c) oxidation, again under conditions that allowed adequate definition of kinetic constants and with <10 % substrate conversion. Incubation samples were subjected to UPLC analysis that was performed as described previously (Punt et al. [2008]). Identification was achieved by comparing the UV spectra of the formed metabolites to the spectra of the synthesized 1′-hydroxymyristicin and 1′-oxomyristicin reference standards. Quantification of all formed metabolites was done by comparing the peak areas to those of calibration curves of the corresponding reference compounds, determined using UPLC with photodiode array detection (UPLC-PDA). The UPLC system was composed of a Waters (Waters, Milford, MA) Acquity solvent manager, sample manager, and photodiode array detector, equipped with Water Acquity UPLC BEH C18 column.\n(§4) The gradient for analysis of microsomal metabolites was performed with 100 % ACN and ultrapure water containing 0.1 % (v/v) TFA. The flow rate was 0.6 ml/min. The gradient started at 10 % ACN, increased to 50 % ACN over 4 min, increased to 80 % over 0.5 min, followed by decrease to 10 % ACN over 0.5 min, and finally kept at 10 % for 1 min."}, "[9]": {"experiment": "Microsomal conversion of myristicin, male rat liver microsomes", "type": "in vitro ADME", "experimental": "as §2, §3, §4"}, "[10]": {"details": "formation of the metabolite from myristicin, NADPH, mean of three ± SD"}, "[11]": {"details": "formation of the metabolite from myristicin, Vmax/Km × 1000"}, "[12]": {"details": "from myristicin, scaled Vmax/Km"}},
  "note": "Read-outs that look alike come from different tables or passages of the source.",
  "data": [
    {"compound": "C=CCc1cc(OC)c2c(c1)OCO2", "note": "[Myristicin, 1-allyl-5-methoxy-3,4 methylene-dioxybenzene]", "values": [
      {"measurement": "metabolism of myristicin in small intestine, lung, or kidney microsomes", "setting": "[1]", "value": "no detectable metabolism"},
      {"measurement": "in vitro genotoxicity", "setting": "[2]", "value": "mutagenic"},
      {"measurement": "pmol Adduct/mg DNA", "setting": "Mouse liver CD-1; 80 mg/kg bw i.p.", "value": 16.8, "unit": "pmol Adduct/mg DNA"},
      {"measurement": "pmol Adduct/mg DNA", "setting": "Mouse liver CD-1; 400 mg/kg bw i.p.", "value": 49.5, "unit": "pmol Adduct/mg DNA"},
      {"measurement": "activity for the initiation of hepatic tumors", "setting": "male B6C3F1 mice", "value": "no detectable activity"},
      {"measurement": "MOE", "setting": "[3]", "value": "1000–2684"},
      {"measurement": "pmol Adduct/mg DNA", "setting": "New born mice B6C3F1", "value": 7.8, "unit": "pmol Adduct/mg DNA"},
      {"measurement": "absorption rate constant (ka)", "setting": "[4]", "value": 1.0, "unit": "h⁻¹"},
      {"measurement": "cytotoxicity", "setting": "[5]", "value": "showed cytotoxicity"},
      {"measurement": "DNA adduct formation, result", "setting": "DNA", "value": "positive results"},
      {"measurement": "level of myristicin adducts in fetal liver", "setting": "pregnant ICR mice", "value": "63 % of the total adducts"},
      {"measurement": "level of myristicin adducts in maternal liver", "setting": "pregnant ICR mice", "value": "68 % of the total adducts"},
      {"measurement": "pmol Adduct/mg DNA", "setting": "[6]; 50 uM", "value": 0.017, "unit": "pmol Adduct/mg DNA"},
      {"measurement": "pmol Adduct/mg DNA", "setting": "[6]; 150 uM", "value": 0.049, "unit": "pmol Adduct/mg DNA"},
      {"measurement": "pmol Adduct/mg DNA", "setting": "[6]; 450 uM", "value": 0.165, "unit": "pmol Adduct/mg DNA"},
      {"measurement": "metabolism of myristicin in small intestine, lung, or kidney microsomes", "setting": "[7]", "value": "no detectable metabolism"}
    ]},
    {"compound": "C=CCc1cc(O)c(O)c(OC)c1", "note": "[5-Allyl-2,3-dihydroxyanisole, 5-allyl-2,3-dihydroxyanisole]", "values": [
      {"measurement": "metabolite in rat urine, percentage of the total dose", "setting": "rat urine", "value": "67 % of the total dose"},
      {"measurement": "Vmax", "setting": "[8]; [10]", "value": "0.93 ± 0.13 nmol min^−1 (mg microsomal or S9 protein)^−1"},
      {"measurement": "In vitro catalytic efficiency", "setting": "[8]; [11]", "value": "7.881 μl min^−1 (mg microsomal or S9 protein)^−1"},
      {"measurement": "Scaled Vmax, in vivo", "setting": "[8]; from myristicin, microsomal protein yield 32 mg/g liver", "value": 1.786, "unit": "μmol/h/g tissue"},
      {"measurement": "In vivo catalytic efficiency", "setting": "[8]; [12]", "value": 0.0151, "unit": "ml/h/g tissue"},
      {"measurement": "Vmax", "setting": "[9]; [10]", "value": "1.3 ± 0.23 nmol min^−1 (mg microsomal or S9 protein)^−1"},
      {"measurement": "In vitro catalytic efficiency", "setting": "[9]; [11]", "value": "39.394 μl min^−1 (mg microsomal or S9 protein)^−1"},
      {"measurement": "Scaled Vmax, in vivo", "setting": "[9]; from myristicin, microsomal protein yield 35 mg/g liver", "value": 2.73, "unit": "μmol/h/g tissue"},
      {"measurement": "In vivo catalytic efficiency", "setting": "[9]; [12]", "value": 0.0827, "unit": "ml/h/g tissue"},
      {"measurement": "catalytic efficiency, fold higher than for formation of 3′-hydroxymyristicin", "setting": "[9]; male rat liver microsomes", "value": "approximately sevenfold"}
    ]}
  ]
}
